The target of the experiment is ShPyV VP1. The settings on record: glycan coupled to BSA by reductive amination and immobilised on CM5 chip; multivalent (avidity); pH 7.4, 25 °C; kinetic fit.

For 1 compound, Kd results are on record in doi:10.1101/2023.04.10.536218v2, “A novel and highly specific Forssman antigen-binding protein from sheep polyomavirus” (biorxiv, 2023).

Compound `CC(=O)N[C@H]1[C@@H](O[C@H]2[C@@H](O)[C@@H](CO)O[C@@H](O[C@H]3[C@@H](O)[C@@H](CO)O[C@H](O[C@@H]4[C@H](O)[C@@H](O)[C@H](O[C@H]5[C@H](O)[C@@H](O)C(O)O[C@@H]5CO)O[C@@H]4CO)[C@@H]3O)[C@@H]2NC(C)=O)O[C@H](CO)[C@H](O)[C@@H]1O` (stereo partly shown) [FP, Forssman pentaose] had a Kd of 3.6 nM.
